Laboratory results taken from the supplement of paper PMC6045584.

How the values were obtained:
Assay in all cases: area under dose-response curve of surviving fraction (unscaled, Aref=0) (surviving fraction x log10(nM)); higher = more resistant
Settings in all cases: exposure time: 5 days; dose range 0.5-1000 nM
SOTRASTAURIN/AEB071 = compound: CN1CCN(c2nc(C3=C(c4c[nH]c5ccccc45)C(=O)NC3=O)c3ccccc3n2)CC1 [SOTRASTAURIN/AEB071]
In short: (§1)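 Each tumour cell line was screened three times in 384-well plates, receiving eight inhibitor concentrations from 0.5 to 1000 nM for five days. CellTiter-Glo luminescence gave viability, normalised to DMSO-only wells. Using the drc R package, surviving fractions were fitted with 3-parameter logistic dose-response curves, and the unscaled activity area over log10 dose (Aref = 0) was taken as the area under the curve.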

FORETINIB = compound: COc1cc2c(Oc3ccc(NC(=O)C4(C(=O)Nc5ccc(F)cc5)CC4)cc3F)ccnc2cc1OCCCN1CCOCC1 [FORETINIB]
In short: as §1

CRIZOTINIB = compound: C[C@@H](Oc1cc(-c2cnn(C3CCNCC3)c2)cnc1N)c1c(Cl)ccc(F)c1Cl [CRIZOTINIB]
In short: as §1

[1] = compound: CCn1c(C(=O)N(C2CC2)C2CC2)cc2c3c(ncn3C)c(Nc3cc(C)n(C)n3)nc21
In short: as §1

SORAFENIB = compound: CNC(=O)c1cc(Oc2ccc(NC(=O)Nc3ccc(Cl)c(C(F)(F)F)c3)cc2)ccn1 [SORAFENIB]
In short: as §1

[2] = compound: COc1cc2ncnc(Nc3ccc(F)c(Cl)c3)c2cc1NC(=O)/C=C/CN1CCCCC1
In short: as §1

[3] = compound: C[C@@H](Oc1cc(-c2cnn(C3CCNCC3)c2)cnc1N)c1c(Cl)ccc(F)c1Cl
In short: as §1

ABIRATERONE = compound: C[C@]12CC[C@H](O)CC1=CC[C@@H]1[C@@H]2CC[C@]2(C)C(c3cccnc3)=CC[C@@H]12 [ABIRATERONE]
In short: as §1

OLAPARIB = compound: O=C(c1cc(Cc2n[nH]c(=O)c3ccccc23)ccc1F)N1CCN(C(=O)C2CC2)CC1 [OLAPARIB]
In short: as §1

XAV-939 = compound: Oc1nc(-c2ccc(C(F)(F)F)cc2)nc2c1CSCC2 [XAV-939]
In short: as §1

Test System	area under dose-response curve (SOTRASTAURIN/AEB071)	area under dose-response curve (FORETINIB)	area under dose-response curve (CRIZOTINIB)	area under dose-response curve [1]	area under dose-response curve (SORAFENIB)	area under dose-response curve [2]	area under dose-response curve [3]	area under dose-response curve (ABIRATERONE)	area under dose-response curve (OLAPARIB)	area under dose-response curve (XAV-939)
CCK81 LARGE INTESTINE	2.85	2.29	2.36	–	–	–	–	–	–	–
HMT3552 BREAST	–	2.99	3.05	–	–	–	–	–	–	–
G292 BONE	3.33	2.74	3	3.3	3.26	3.03	2.88	3.4	3.17	3.14
HCC38 BREAST	3.03	2.93	–	–	4.12	–	3.21	4.04	2.57	3.17
HS578T BREAST	3.13	–	–	3.19	2.64	–	2.75	–	2.79	3.76
HMLE3 BREAST	–	2.9	–	3.12	–	3.01	2.86	3.42	3.22	3.15
HCC70 BREAST	3.82	3.69	3.69	3.28	3.81	3.17	3.26	3.59	3.59	–
